Measured values as given in publication PMC7287031 (Pharmacology Research & Perspectives, 2020).
Like-named read-outs stand apart in the source and are kept apart here.

Assays:
[1] = Rat pharmacokinetic studies: plasma PK of ribociclib after single i.v. or oral dose; assay type: in vivo; details: for Vd: read-out: Vss; for half-life: read-out: t½ (converted)
Method: ADME studies (including QWBA in pigmented and non‐pigmented rats) using radiolabeled ribociclib were conducted in rat and dog. Relevant institutional and national guides for the care and use of laboratory animals were followed. […]

[2] = In vitro plasma protein binding (ultrafiltration), rat; assay type: in vitro ADME; details: 100 and 1000 ng/mL
Method: Stock solutions were spiked into plasma to achieve the intended concentrations. After incubation for 1 hour at 37°C under constant gentle agitation, the spiked plasma samples (n = 3) were centrifuged (2000 g, 10 min, 37°C) in pre‐warmed Centrifree devices. Total radioactivity was determined in the ultrafiltrate (Cu, concentration of unbound compound) and in the sample introduced into the reservoir before ultrafiltration (Cp). The unbound (fu) and the bound (fb) fraction in plasma were calculated as follows: fu (%) = Cu/Cp × 100; fb (%) = 100‐Fu (%).

[3] = Placental transfer (fetal vs maternal plasma), rabbit embryofetal development study; assay type: in vivo; details: female, fetal plasma (relative to maternal plasma), rabbits, 3 hours post dose, Day 20 postcoitum, read-out: Fetal plasma concentration as % of maternal plasma concentration
[4] = molecular target: T1, CYP1A2 (Homo sapiens, UniProt P05177); experiment: Enzyme kinetics with recombinant CYP1A2 and scaling to HLM; assay type: in vitro ADME
T1 construct: purchased BD Biosciences
T1 sequence (P05177 1-516): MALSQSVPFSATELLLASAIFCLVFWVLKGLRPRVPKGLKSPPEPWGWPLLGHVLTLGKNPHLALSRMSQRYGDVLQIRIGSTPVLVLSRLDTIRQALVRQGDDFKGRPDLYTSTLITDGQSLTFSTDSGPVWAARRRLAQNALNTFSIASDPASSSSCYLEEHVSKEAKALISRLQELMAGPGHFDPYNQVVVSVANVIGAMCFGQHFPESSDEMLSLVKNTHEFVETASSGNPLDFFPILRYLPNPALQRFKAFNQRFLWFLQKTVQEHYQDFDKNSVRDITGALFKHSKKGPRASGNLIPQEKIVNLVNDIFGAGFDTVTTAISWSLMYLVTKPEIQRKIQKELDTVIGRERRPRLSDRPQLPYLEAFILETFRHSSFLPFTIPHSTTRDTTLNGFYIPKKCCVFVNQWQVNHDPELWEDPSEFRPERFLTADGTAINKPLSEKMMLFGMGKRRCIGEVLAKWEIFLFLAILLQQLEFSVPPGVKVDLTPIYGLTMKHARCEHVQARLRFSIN
Method: (§1) In vitro incubations were carried out in 100‐mM potassium phosphate buffer (pH 7.4) and 5‐mM MgCl2 with a total volume of 200 µL. Substrate and either human liver microsomes (HLM, BD Biosciences, mixed gender pool of n = 50) or recombinant human enzymes (BD Biosciences) were added and pre‐incubated for 3 minutes at 37°C. The reaction was started by addition of a fresh solution of NADPH (1 mmol/L final concentration). The samples were incubated at 37°C with agitation of 500 rpm. For incubations with CYP2A6, CYP2C9, CYP2C18, and CYP4A11, the phosphate buffer was replaced by TRIS buffer (100 mmol/L, pH 7.4) and for flavin‐containing monooxygenases (FMOs), a glycine buffer (50 mM, pH 9.5) was used.
The enzymatic reaction was stopped and the protein was precipitated by addition of an equal volume of methanol. After 30 min at −80°C, the samples were centrifuged at 30'000 x g for 15 min. The supernatant was withdrawn. Aliquots were analyzed by LSC and the supernatant was diluted with water to obtain a final solution containing less than 20% of the organic solvent. For samples of low substrate concentration, supernatants were evaporated to dryness under nitrogen, then re‐suspended in water containing less than 20% of methanol. Samples were analyzed by HPLC combined with radiodetection. […]

[5] = molecular target: T2, CYP3A4 (Homo sapiens, UniProt P08684); experiment: Enzyme kinetics with recombinant CYP3A4 and scaling to HLM; assay type: in vitro ADME
T2 construct: purchased BD Biosciences
Method: as §1
(§2) The enzymatic reaction was stopped and the protein was precipitated by addition of an equal volume of methanol. […] The supernatant was withdrawn. Aliquots were analyzed by LSC and the supernatant was diluted with water to obtain a final solution containing less than 20% of the organic solvent. For samples of low substrate concentration, supernatants were evaporated to dryness under nitrogen, then re‐suspended in water containing less than 20% of methanol. Samples were analyzed by HPLC combined with radiodetection.

[6] = Kinetic analysis of ribociclib metabolite formation in HLM and enzyme contribution; assay type: in vitro ADME, human; details: both sexes, human, pooled human liver microsomes, pH 7.4; HLM, sum of metabolite formation; read-out: CLint, Total of all pathways
Method: as §1, §2
(§3) Km and Vmax parameters were calculated by using SigmaPlot Version 8.0, Enzyme Kinetics module Version 1.1 software (SPSS Science Inc, Chicago, IL, USA). The intrinsic clearance was calculated by the equation: CLint = Vmax/Km.
(§4) The intrinsic clearances (Vmax/Km) of each pathway were determined by enzyme kinetics.

[7] = system: CYP3A4; experiment: as above; assay type: in vitro ADME, human; details: both sexes, human, pooled human liver microsomes, pH 7.4; HLM; read-out: CLint attributed to CYP3A4
Method: as §1, §2, §3, §4

[8] = system: FMO3; experiment: as above; assay type: in vitro ADME, human; details: both sexes, human, pooled human liver microsomes, pH 7.4; HLM; read-out: CLint attributed to FMO3
Method: as §1, §2, §3, §4

[9] = system: human liver microsomes; experiment: as above; assay type: in vitro ADME; details: metabolite formation kinetics
Method: as §1, §2, §3, §4

[10] = female, Hanover Wistar, iv, rat f (3), i.v., 4.2 mg base/kg
[11] = female, rat f (3), po, 11.1 mg base/kg
[12] = female, rat f (4), po, 51.2 mg base/kg
[13] = male, Hanover Wistar, rat m (3), po, 9.8 mg base/kg
[14] = male, Sprague Dawley, 5 mg/kg, rat m (3), po, 5.0 mg base/kg
[15] = male, Sprague Dawley, iv, 2 mg/kg, rat m (2), i.v., 2.0 mg base/kg

T2 sequence (P08684 whole entry): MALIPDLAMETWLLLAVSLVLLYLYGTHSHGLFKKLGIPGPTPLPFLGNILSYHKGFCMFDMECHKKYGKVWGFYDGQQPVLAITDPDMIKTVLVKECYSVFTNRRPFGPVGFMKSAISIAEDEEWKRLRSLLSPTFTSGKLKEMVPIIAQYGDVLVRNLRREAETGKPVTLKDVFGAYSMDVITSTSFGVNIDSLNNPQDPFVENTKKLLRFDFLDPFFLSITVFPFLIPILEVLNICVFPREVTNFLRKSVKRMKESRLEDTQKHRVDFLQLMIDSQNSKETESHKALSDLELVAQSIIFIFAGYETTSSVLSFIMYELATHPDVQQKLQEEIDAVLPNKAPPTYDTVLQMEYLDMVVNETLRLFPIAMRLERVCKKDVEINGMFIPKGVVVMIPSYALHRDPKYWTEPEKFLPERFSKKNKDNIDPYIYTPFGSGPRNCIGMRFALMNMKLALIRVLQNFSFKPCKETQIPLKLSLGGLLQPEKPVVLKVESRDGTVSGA

`CN(C)C(=O)c1cc2cnc(Nc3ccc(N4CCNCC4)cn3)nc2n1C1CCCC1` [ribociclib, Ribociclib] showed a Vd [1, 10] of 12.2 L/kg, a half-life [1, 10] of 1.9 h and an AUC(0-t) ([1]; female, Hanover Wistar, rat, iv, 4.2 mg base/kg) of 508 ng·h/mL. For the same compound, the clearance ([1]; female, iv, rat f (3), 4.2 mg base/kg) was 130 mL/min/kg, the Cmax [1, 11] was 59.1 ng/mL and the Tmax [1, 11] was 2 h. For the same compound, the AUC(0-t) ([1]; female, rat f (3), po, 11.1 mg base/kg, AUC interval 24 h) was 360 ng·h/mL, the Cmax [1, 12] was 1090 ng/mL and the Tmax [1, 12] was 0.3 h. For the same compound, the half-life [1, 12] was 2 h, the AUC(0-t) ([1]; female, rat, po, 51.2 mg base/kg) was 3100 ng·h/mL and the clearance ([1]; male, Hanover Wistar, iv, rat m (3), 4.1 mg base/kg) was 46.7 mL/min/kg. The half-life ([1]; male, Hanover Wistar, iv, rat m (3), i.v., 4.1 mg base/kg) was 3.2 h, the Cmax [1, 13] was 130 ng/mL and the Tmax [1, 13] was 4 h. For the same compound, the AUC(0-t) ([1]; male, Hanover Wistar, rat m (3), po, 9.8 mg base/kg, AUC interval 24 h) was 1340 ng·h/mL, the AUC(0-t) ([1]; male, Hanover Wistar, rat, iv, 4.1 mg base/kg) was 1440 ng·h/mL and the Cmax [1, 14] was 126 ng/mL. The Tmax [1, 14] was 2 h, the bioavailability [1, 14] was 55% and the Vd [1, 15] was 9.9 L/kg. For the same compound, the half-life [1, 15] was 2.8 h, the AUC(0-t) ([1]; male, Sprague Dawley, rat, iv, 2 mg/kg) was 587 ng·h/mL and the AUC(0-t) ([1]; male, Sprague Dawley, rat, po, 5 mg/kg) was 672 ng·h/mL. It also gave a clearance ([1]; male, iv, rat m (2), 2.0 mg base/kg) of 51.7 mL/min/kg, a Vd ([1]; male, iv, rat m (3), i.v., 4.1 mg base/kg) of 7.9 L/kg and a bioavailability ([1]; male, rat m (3), po, 9.8 mg base/kg) of 37%. The fraction unbound at 1 h [2] was 0.2 ± 0.01, the Kp at 3 h [3] was 0.06 and the “fm,CYP” value ([4]; CYP1A2, share of total CYP-mediated metabolism in HLM) was 1.1%. For the same compound, the fumic ([4]; CYP1A2 incubation) was 0.86, the “fm,CYP” value ([5]; CYP3A4, share of total CYP-mediated metabolism in HLM) was 97% and the fumic ([5]; CYP3A4 incubation) was 0.83. It also gave a Vmax ([5]; recombinant CYP3A4, substrate inhibition model) of 12.3 ± 5.2 pmol/min/pmol, a microsomal CLint [6] of 31.5 µL/min/mg and a microsomal CLint [7] of 23.3 µL/min/mg. The microsomal CLint [8] was 8.19 µL/min/mg, the “fm (Rel. Clint), CYP3A4 share of oxidative metabolism in HLM” value [9] was 74% and the “fm (Rel. Clint), FMO3 / hepatic FMO share of oxidative metabolism in HLM” value [9] was 26%.
